Reference: PMC7827406, “Structure–Activity Relationship (SAR) Study of Spautin-1 to Entail the Discovery of Novel NEK4 Inhibitors” (International Journal of Molecular Sciences, 2021)
Like-named read-outs stand apart in the source and are kept apart here.

Experiments:
Experiment in all cases: biochemical
Set-up in all cases: Eurofins KinaseProfiler full panel at Km ATP, residual kinase activity (%) relative to DMSO
GRK6(h) = GRK6(h) (Homo sapiens, UniProt P43250)
Outline: (§1)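 Compounds screened at 10 µM in radiometric kinase activity assays at Km ATP, reported as remaining kinase activity (%). A KINOMEscan competition-binding screen at 10 µM measured DNA-tagged kinase retained on immobilized active-site ligand by qPCR.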

AMPKα2(h) = target: T1, AMPKα2(h) (Homo sapiens, UniProt P54646)
T1 construct: gene PRKAA2
T1 sequence (P54646 whole entry): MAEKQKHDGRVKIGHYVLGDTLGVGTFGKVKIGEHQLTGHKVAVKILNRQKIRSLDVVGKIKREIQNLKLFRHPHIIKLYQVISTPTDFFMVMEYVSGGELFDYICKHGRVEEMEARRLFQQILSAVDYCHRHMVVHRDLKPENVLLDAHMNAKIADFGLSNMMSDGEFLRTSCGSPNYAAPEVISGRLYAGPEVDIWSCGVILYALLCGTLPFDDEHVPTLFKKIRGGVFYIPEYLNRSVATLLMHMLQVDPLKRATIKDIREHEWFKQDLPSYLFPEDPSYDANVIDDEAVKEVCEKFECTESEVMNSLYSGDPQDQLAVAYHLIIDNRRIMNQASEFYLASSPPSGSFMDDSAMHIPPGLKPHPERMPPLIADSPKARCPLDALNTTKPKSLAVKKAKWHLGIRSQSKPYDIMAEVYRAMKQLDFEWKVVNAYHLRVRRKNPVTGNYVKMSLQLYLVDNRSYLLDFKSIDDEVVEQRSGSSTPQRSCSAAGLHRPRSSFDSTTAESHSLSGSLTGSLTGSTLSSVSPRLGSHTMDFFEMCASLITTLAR
T1 sequence (P54619 whole entry partner): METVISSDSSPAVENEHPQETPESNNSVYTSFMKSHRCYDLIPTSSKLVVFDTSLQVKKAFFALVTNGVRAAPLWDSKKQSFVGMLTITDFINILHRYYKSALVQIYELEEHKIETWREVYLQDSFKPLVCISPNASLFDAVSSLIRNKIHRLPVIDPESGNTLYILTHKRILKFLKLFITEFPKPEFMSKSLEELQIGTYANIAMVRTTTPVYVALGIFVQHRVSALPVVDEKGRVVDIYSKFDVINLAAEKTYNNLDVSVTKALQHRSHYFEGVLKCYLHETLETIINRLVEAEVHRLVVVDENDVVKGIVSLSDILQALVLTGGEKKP
T1 sequence (Q9Y478 whole entry partner): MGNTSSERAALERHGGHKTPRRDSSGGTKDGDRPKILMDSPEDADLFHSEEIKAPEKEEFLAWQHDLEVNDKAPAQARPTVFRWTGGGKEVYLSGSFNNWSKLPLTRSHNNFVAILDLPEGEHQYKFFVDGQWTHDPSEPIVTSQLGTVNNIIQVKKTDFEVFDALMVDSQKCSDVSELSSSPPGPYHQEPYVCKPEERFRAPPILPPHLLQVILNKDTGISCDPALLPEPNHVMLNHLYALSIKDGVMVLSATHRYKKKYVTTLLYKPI
Outline: as §1

MYLK2(h) = MYLK2(h) (Homo sapiens, UniProt Q9H1R3)
Outline: as §1

CHK1(h) = target: T2, CHK1(h) (Homo sapiens, UniProt O14757)
T2 construct: gene CHEK1
T2 sequence (O14757 1-476): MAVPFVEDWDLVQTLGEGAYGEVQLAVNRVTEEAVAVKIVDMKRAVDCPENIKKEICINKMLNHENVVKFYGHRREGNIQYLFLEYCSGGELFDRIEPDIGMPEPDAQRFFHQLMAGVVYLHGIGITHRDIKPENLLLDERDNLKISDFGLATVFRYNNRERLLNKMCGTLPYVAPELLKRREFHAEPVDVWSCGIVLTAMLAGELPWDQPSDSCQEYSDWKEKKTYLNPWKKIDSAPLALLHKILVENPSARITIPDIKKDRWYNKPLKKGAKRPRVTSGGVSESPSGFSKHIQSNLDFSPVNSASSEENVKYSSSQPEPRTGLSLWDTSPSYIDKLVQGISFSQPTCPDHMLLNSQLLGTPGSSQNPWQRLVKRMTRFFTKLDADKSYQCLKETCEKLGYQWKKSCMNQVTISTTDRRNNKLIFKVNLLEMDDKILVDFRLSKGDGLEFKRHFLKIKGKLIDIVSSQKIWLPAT
Outline: as §1

PDGFRα(D842V)(h) = target: T3, PDGFRα(D842V)(h) (Homo sapiens, UniProt P16234, D842V)
T3 construct: gene PDGFRA
T3 sequence (P16234 whole entry D842V): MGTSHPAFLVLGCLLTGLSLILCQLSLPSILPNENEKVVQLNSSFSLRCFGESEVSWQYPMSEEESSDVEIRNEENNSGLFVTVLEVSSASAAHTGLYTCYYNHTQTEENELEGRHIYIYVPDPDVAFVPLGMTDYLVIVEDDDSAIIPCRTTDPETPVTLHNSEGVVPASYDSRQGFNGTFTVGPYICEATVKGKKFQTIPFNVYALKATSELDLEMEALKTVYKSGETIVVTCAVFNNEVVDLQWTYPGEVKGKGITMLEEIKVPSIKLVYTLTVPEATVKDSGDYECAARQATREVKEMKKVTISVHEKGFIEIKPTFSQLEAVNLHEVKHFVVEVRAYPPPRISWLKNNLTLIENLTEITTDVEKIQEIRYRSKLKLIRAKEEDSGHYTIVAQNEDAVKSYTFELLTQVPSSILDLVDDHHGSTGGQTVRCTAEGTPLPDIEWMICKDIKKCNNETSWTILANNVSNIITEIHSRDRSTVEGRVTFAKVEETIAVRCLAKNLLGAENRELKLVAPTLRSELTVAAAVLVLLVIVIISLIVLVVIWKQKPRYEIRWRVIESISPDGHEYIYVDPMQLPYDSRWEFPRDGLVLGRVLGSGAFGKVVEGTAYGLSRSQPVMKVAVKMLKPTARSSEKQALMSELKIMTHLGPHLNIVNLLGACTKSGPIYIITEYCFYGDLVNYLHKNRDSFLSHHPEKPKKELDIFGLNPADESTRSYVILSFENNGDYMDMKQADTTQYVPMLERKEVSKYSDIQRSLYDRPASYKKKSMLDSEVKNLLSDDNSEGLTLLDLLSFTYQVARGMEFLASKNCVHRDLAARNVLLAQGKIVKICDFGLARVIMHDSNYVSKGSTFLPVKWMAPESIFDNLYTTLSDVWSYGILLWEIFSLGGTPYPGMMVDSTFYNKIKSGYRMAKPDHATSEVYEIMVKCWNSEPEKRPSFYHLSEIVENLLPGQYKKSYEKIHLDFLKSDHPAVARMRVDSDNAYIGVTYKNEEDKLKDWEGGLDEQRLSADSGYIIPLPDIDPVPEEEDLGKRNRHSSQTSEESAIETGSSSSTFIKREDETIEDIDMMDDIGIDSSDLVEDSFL
Outline: as §1

Rsk1(h) = target: T4, Rsk1(h) (Homo sapiens, UniProt Q15418)
T4 construct: gene RPS6KA1
T4 sequence (Q15418 whole entry): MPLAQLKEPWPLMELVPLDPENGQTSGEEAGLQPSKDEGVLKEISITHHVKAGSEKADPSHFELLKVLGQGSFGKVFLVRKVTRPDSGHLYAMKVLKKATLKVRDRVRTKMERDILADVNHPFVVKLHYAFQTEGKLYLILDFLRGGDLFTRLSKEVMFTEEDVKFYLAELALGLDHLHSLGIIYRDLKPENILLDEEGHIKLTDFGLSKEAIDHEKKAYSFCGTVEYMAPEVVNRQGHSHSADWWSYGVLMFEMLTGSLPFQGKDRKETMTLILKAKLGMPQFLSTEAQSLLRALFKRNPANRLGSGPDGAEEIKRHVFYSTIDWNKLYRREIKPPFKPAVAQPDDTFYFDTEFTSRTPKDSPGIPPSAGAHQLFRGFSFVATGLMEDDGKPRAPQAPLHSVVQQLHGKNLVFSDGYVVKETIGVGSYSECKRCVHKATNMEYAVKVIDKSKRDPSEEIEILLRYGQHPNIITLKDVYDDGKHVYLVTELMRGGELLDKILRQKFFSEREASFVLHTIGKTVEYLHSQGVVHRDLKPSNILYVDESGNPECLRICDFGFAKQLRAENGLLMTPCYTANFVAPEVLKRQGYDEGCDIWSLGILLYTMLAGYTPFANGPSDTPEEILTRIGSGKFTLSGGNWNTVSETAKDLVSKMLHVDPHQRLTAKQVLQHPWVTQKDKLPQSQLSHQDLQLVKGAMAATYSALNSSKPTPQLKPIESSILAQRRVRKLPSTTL
Outline: as §1

NLK(h) = target: T5, NLK(h) (Homo sapiens, UniProt Q9UBE8)
T5 sequence (Q9UBE8 1-527): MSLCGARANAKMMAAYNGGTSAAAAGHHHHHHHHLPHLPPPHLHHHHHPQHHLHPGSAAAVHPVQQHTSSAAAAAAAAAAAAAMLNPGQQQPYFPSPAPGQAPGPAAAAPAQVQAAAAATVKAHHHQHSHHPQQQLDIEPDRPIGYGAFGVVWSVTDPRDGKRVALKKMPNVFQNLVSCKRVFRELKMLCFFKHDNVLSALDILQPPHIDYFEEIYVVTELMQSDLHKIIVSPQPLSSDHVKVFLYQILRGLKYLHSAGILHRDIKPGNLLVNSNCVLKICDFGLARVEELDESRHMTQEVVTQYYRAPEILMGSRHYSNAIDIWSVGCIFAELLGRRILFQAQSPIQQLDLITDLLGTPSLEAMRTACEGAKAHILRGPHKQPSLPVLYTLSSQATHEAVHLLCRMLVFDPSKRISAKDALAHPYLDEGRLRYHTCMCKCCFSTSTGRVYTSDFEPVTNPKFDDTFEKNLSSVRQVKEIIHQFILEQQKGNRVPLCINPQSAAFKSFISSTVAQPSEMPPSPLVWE
Outline: as §1

[1] = target: T6, PI3 Kinase (p110a/p65a)(h) (Homo sapiens, UniProt P42336)
T6 construct: gene PIK3CA; with p65a
T6 sequence (P42336 whole entry): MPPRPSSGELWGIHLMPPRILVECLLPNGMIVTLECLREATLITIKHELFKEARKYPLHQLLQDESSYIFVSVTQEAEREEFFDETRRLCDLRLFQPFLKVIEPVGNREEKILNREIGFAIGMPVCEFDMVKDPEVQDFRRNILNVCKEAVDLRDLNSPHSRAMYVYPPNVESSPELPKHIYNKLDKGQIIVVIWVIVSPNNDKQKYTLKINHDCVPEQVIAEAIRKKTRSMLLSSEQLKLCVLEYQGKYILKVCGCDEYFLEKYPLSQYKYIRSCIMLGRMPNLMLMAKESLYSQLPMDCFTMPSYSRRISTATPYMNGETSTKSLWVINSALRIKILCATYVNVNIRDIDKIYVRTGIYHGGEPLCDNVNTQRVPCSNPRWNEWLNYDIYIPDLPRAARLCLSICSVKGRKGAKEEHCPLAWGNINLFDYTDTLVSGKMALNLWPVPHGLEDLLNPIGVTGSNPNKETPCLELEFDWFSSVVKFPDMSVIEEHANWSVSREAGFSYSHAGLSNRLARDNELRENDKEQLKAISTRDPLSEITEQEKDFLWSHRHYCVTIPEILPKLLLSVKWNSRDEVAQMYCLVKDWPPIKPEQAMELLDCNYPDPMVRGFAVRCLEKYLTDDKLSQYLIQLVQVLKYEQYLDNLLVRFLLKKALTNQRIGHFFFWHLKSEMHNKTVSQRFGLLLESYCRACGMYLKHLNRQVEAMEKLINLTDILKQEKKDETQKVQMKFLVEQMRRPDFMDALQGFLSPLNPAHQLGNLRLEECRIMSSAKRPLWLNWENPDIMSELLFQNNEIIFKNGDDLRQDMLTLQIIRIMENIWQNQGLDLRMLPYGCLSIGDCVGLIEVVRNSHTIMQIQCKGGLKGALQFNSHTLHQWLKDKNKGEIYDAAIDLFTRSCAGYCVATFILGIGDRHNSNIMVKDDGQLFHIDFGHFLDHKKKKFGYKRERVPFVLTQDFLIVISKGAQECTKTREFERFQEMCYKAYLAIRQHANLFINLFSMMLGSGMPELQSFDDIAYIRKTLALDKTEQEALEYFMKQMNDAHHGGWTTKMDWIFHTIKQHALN
T6 sequence (P27986 whole entry partner): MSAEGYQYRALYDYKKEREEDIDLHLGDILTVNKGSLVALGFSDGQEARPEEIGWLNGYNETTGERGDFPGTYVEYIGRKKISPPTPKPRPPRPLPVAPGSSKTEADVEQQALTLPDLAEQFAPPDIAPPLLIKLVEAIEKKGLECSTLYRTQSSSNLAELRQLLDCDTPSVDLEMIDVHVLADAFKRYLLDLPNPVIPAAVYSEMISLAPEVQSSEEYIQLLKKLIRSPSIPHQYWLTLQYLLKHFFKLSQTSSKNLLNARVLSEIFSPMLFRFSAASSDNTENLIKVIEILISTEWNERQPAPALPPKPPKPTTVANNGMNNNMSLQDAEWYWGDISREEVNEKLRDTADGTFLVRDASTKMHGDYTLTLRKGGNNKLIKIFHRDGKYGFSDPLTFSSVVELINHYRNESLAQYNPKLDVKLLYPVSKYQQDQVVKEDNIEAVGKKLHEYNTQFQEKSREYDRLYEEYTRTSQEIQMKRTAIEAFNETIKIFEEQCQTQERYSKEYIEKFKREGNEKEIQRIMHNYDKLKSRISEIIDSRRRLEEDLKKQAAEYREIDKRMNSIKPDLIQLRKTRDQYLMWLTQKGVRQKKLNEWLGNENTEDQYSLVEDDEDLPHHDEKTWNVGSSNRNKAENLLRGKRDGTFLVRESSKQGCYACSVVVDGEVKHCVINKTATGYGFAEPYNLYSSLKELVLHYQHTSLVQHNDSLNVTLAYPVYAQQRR
Outline: as §1

Abl(Y253F)(h) = target: T7, Abl(Y253F)(h) (Homo sapiens, UniProt P00519, Y253F)
T7 construct: gene ABL1
Outline: as §1

[2] = read-out: Residual activity (%) Spautin-1 5aa
[3] = read-out: Residual activity (%) 5as
[4] = read-out: Residual activity (%) 5at
[5] = read-out: Residual activity (%) 5ay

Fc1ccc(CNc2ncnc3ccc(F)cc23)cc1 [5aa, 6-Fluoro-N-(4-fluorobenzyl)-4-Quinazolinamine]
remaining activity at 10 µM (GRK6(h); [2]): 100% | remaining activity at 10 µM (AMPKα2(h); [2]): 108% | remaining activity at 10 µM (MYLK2(h); [2]): 97% | remaining activity at 10 µM (CHK1(h); [2]): 80% | remaining activity at 10 µM (PDGFRα(D842V)(h); [2]): 114% | remaining activity at 10 µM (Rsk1(h); [2]): 102% | remaining activity at 10 µM (NLK(h); [2]): 85% | remaining activity at 10 µM [1, 2]: 98% | remaining activity at 10 µM (Abl(Y253F)(h); [2]): 106%

Fc1ccc(CCNc2ncnc3ccc(F)cc23)cc1 [5as, 6-Fluoro-N-[2-(4-Fluorophenyl)Ethyl]-4-Quinazolinamine]
remaining activity at 10 µM (GRK6(h); [3]): 104% | remaining activity at 10 µM (AMPKα2(h); [3]): 108% | remaining activity at 10 µM (MYLK2(h); [3]): 80% | remaining activity at 10 µM (CHK1(h); [3]): 69% | remaining activity at 10 µM (PDGFRα(D842V)(h); [3]): 92% | remaining activity at 10 µM (Rsk1(h); [3]): 110% | remaining activity at 10 µM (NLK(h); [3]): 93% | remaining activity at 10 µM [1, 3]: 95% | remaining activity at 10 µM (Abl(Y253F)(h); [3]): 91%

Fc1ccc2ncnc(NCCc3ccc(Cl)cc3)c2c1 [5at, N-[2-(4-Chlorophenyl)Ethyl]-6-Fluoro-4-Quinazolinamine]
remaining activity at 10 µM (GRK6(h); [4]): 99% | remaining activity at 10 µM (AMPKα2(h); [4]): 109% | remaining activity at 10 µM (MYLK2(h); [4]): 93% | remaining activity at 10 µM (CHK1(h); [4]): 73% | remaining activity at 10 µM (PDGFRα(D842V)(h); [4]): 86% | remaining activity at 10 µM (Rsk1(h); [4]): 103% | remaining activity at 10 µM (NLK(h); [4]): 82% | remaining activity at 10 µM [1, 4]: 94% | remaining activity at 10 µM (Abl(Y253F)(h); [4]): 71%

COc1ccc2ncnc(Nc3cccc(F)c3)c2c1 [5ay, N-(3-Fluorophenyl)-6-Methoxy-4-Quinazolinamine]
remaining activity at 10 µM (GRK6(h); [5]): 110% | remaining activity at 10 µM (AMPKα2(h); [5]): 97% | remaining activity at 10 µM (MYLK2(h); [5]): 89% | remaining activity at 10 µM (CHK1(h); [5]): 76% | remaining activity at 10 µM (PDGFRα(D842V)(h); [5]): 50% | remaining activity at 10 µM (Rsk1(h); [5]): 116% | remaining activity at 10 µM (NLK(h); [5]): 80% | remaining activity at 10 µM [1, 5]: 91% | remaining activity at 10 µM (Abl(Y253F)(h); [5]): 66%
